Measured values reported in PubChem BioAssay AID1117331.
Active and inactive are the calls of the source. The rule behind the calls is not given here.

Tested on: INS-1E rat insulinoma, insulin secretion, 5 mM glucose
Test: cell-based inhibition of insulin secretion, rat insulinoma INS-1E, 5 mM glucose, concentration response (AID 1117331)

Cc1ccc([N+](=O)[O-])[c]2c1[O][Hg]2
IC50: > 33.3 µM (inactive)
